From PMC12777568 (Antimicrobial Agents and Chemotherapy, 2025)
Where two headings read alike, the source gives them in different places.

Legend:
[1] = BIC plasma pharmacokinetics, Phase 1 open-label single-dose DDI study GS-US-380-3909 (B/F/TAF 50/200/25 mg with antacid or mineral supplements); assay type: in vivo, human; conditions: both sexes, human, plasma, oral; for AUC(0-t): BIC plasma AUClast; for Tmax: BIC plasma Tmax, median (Q1, Q3)
Method: Eligible participants were adult (18–45 years) males and non-pregnant, non-lactating females in good general health at a screening evaluation performed no more than 28 days before the first study dose. […] Full eligibility criteria are available in the supplement. All prescription and over-the-counter medications except vitamins, acetaminophen, ibuprofen, and hormonal contraceptives were not permitted during study participation. Three dosing cohorts were evaluated (Table 1). […] Vitamins and/or other supplements were not permitted on the dosing day. […] Participants received maximum-strength antacid oral suspension (four teaspoons; 20 mL; 1,600 mg aluminum hydroxide/1,600 mg magnesium hydroxide/160 mg simethicone; referred to as “aluminum/magnesium-containing antacid”) on Day 9, calcium carbonate (1,200 mg; 2 × 600 mg tablets) on Day 17, and ferrous fumarate (1 × 324 mg tablet) on Day 25. […] All samples were analyzed within the timeframe determined using frozen stability storage data. […] PK parameters were estimated using Phoenix WinNonlin software (Version 6.4, Pharsight Corporation, Princeton, NJ, USA) using standard noncompartmental analysis methods. […] The estimated 90% CIs were compared to a prespecified lack of DDI boundary of 70%–143%. […] A minimum of 12 evaluable participants in each cohort was calculated to be needed to reject the null hypothesis (i.e., the 90% CI for the GLSM ratio for each PK parameter was outside the prespecified boundary) with ≥90% power.

[2] = tested on: HIV-1 integrase-DNA complexes; conditions: cited from earlier work
[3] = set-up: method as in earlier work; conditions: cited from earlier work

## O=C(NCc1c(F)cc(F)cc1F)c1cn2c(c(O)c1=O)C(=O)N1[C@H]3CC[C@H](C3)O[C@@H]1C2 [BIC, bictegravir]
[1]; BIC plasma AUCinf, mean (%CV), Cohort 3, B/F/TAF alone (fasted), N = 14
  AUC(0-inf): 93700 ng·h/mL
[1]; BIC plasma AUCinf, mean (%CV), Cohort 3 fed, B/F/TAF + aluminum/magnesium-containing antacid simultaneous, N = 14
  AUC(0-inf): 50800 ng·h/mL
[1]; BIC plasma AUCinf, mean (%CV), Cohort 3 fed, B/F/TAF + calcium carbonate simultaneous, N = 14
  AUC(0-inf): 94800 ng·h/mL
[1]; BIC plasma AUCinf, mean (%CV), Cohort 3 fed, B/F/TAF + ferrous fumarate simultaneous, N = 14
  AUC(0-inf): 77300 ng·h/mL
[1]; mean (%CV), Cohort 1 fasted, B/F/TAF + aluminum/magnesium-containing antacid simultaneous, N = 14
  AUC(0-t): 26200 ng·h/mL
[1]; mean (%CV), Cohort 1 fasted, B/F/TAF + calcium carbonate simultaneous, N = 14
  AUC(0-t): 80400 ng·h/mL
[1]; mean (%CV), Cohort 1 fasted, B/F/TAF + ferrous fumarate simultaneous, N = 14
  AUC(0-t): 43400 ng·h/mL
[1]; mean (%CV), Cohort 1 fasted, B/F/TAF alone, N = 14
  AUC(0-t): 117000 ng·h/mL
[1]; mean (%CV), Cohort 2 fasted, B/F/TAF 2 hours after aluminum/magnesium-containing antacid, N = 13
  AUC(0-t): 63400 ng·h/mL
[1]; mean (%CV), Cohort 2 fasted, B/F/TAF 2 hours before aluminum/magnesium-containing antacid, N = 13
  AUC(0-t): 111000 ng·h/mL
[1]; mean (%CV), Cohort 2 fasted, B/F/TAF alone, N = 14
  AUC(0-t): 125000 ng·h/mL
[1]; mean (%CV), Cohort 3, B/F/TAF alone (fasted), N = 14
  AUC(0-t): 91200 ng·h/mL
[1]; mean (%CV), Cohort 3 fed, B/F/TAF + aluminum/magnesium-containing antacid simultaneous, N = 14
  AUC(0-t): 49200 ng·h/mL
[1]; mean (%CV), Cohort 3 fed, B/F/TAF + calcium carbonate simultaneous, N = 14
  AUC(0-t): 91500 ng·h/mL
[1]; mean (%CV), Cohort 3 fed, B/F/TAF + ferrous fumarate simultaneous, N = 14
  AUC(0-t): 74500 ng·h/mL
[1]; BIC plasma C24, mean (%CV), Cohort 1 fasted, B/F/TAF + aluminum/magnesium-containing antacid simultaneous, N = 14
  concentration at 24 h: 430 ng/mL
[1]; BIC plasma C24, mean (%CV), Cohort 1 fasted, B/F/TAF + calcium carbonate simultaneous, N = 14
  concentration at 24 h: 1220 ng/mL
[1]; BIC plasma C24, mean (%CV), Cohort 1 fasted, B/F/TAF + ferrous fumarate simultaneous, N = 14
  concentration at 24 h: 670 ng/mL
[1]; BIC plasma C24, mean (%CV), Cohort 1 fasted, B/F/TAF alone, N = 14
  concentration at 24 h: 1800 ng/mL
[1]; BIC plasma C24, mean (%CV), Cohort 2 fasted, B/F/TAF 2 hours after aluminum/magnesium-containing antacid, N = 13
  concentration at 24 h: 990 ng/mL
[1]; BIC plasma C24, mean (%CV), Cohort 2 fasted, B/F/TAF 2 hours before aluminum/magnesium-containing antacid, N = 13
  concentration at 24 h: 1700 ng/mL
[1]; BIC plasma C24, mean (%CV), Cohort 2 fasted, B/F/TAF alone, N = 14
  concentration at 24 h: 2010 ng/mL
[1]; BIC plasma C24, mean (%CV), Cohort 3, B/F/TAF alone (fasted), N = 14
  concentration at 24 h: 1410 ng/mL
[1]; BIC plasma C24, mean (%CV), Cohort 3 fed, B/F/TAF + aluminum/magnesium-containing antacid simultaneous, N = 14
  concentration at 24 h: 800 ng/mL
[1]; BIC plasma C24, mean (%CV), Cohort 3 fed, B/F/TAF + calcium carbonate simultaneous, N = 14
  concentration at 24 h: 1460 ng/mL
[1]; BIC plasma C24, mean (%CV), Cohort 3 fed, B/F/TAF + ferrous fumarate simultaneous, N = 14
  concentration at 24 h: 1230 ng/mL
[1]; BIC plasma Cmax, mean (%CV), Cohort 1 fasted, B/F/TAF + aluminum/magnesium-containing antacid simultaneous, N = 14
  Cmax: 1200 ng/mL
[1]; BIC plasma Cmax, mean (%CV), Cohort 1 fasted, B/F/TAF + ferrous fumarate simultaneous, N = 14
  Cmax: 1670 ng/mL
[1]; BIC plasma Cmax, mean (%CV), Cohort 2 fasted, B/F/TAF 2 hours after aluminum/magnesium-containing antacid, N = 13
  Cmax: 2740 ng/mL
[1]; BIC plasma Cmax, mean (%CV), Cohort 3 fed, B/F/TAF + aluminum/magnesium-containing antacid simultaneous, N = 14
  Cmax: 2450 ng/mL
[1]; BIC plasma Cmax, mean (%CV), Cohort 3 fed, B/F/TAF + calcium carbonate simultaneous, N = 14
  Cmax: 4110 ng/mL
[1]; Cohort 1 fasted, B/F/TAF + ferrous fumarate simultaneous, N = 14
  Tmax: 3.5 h
[1]; Cohort 3 fed, B/F/TAF + aluminum/magnesium-containing antacid simultaneous, N = 14
  Tmax: 3.5 h
[1]; Cohort 3 fed, B/F/TAF + calcium carbonate simultaneous, N = 14
  Tmax: 3.5 h
[1]; Cohort 3 fed, B/F/TAF + ferrous fumarate simultaneous, N = 14
  Tmax: 4 h
[1]; Cohort 1 fasted, B/F/TAF with aluminum/magnesium-containing antacid simultaneous, N = 14, read-out: AUCinf, test GLSM
  AUC(0-inf): 25200 ng·h/mL
[1]; Cohort 1 fasted, B/F/TAF with aluminum/magnesium-containing antacid simultaneous, N = 14, read-out: C24, test GLSM
  concentration at 24 h: 380 ng/mL
[1]; Cohort 1 fasted, B/F/TAF with aluminum/magnesium-containing antacid simultaneous, N = 14, read-out: Cmax, test GLSM
  Cmax: 1100 ng/mL
[1]; Cohort 1 fasted, B/F/TAF with calcium carbonate simultaneous, N = 14, read-out: AUCinf, test GLSM
  AUC(0-inf): 79100 ng·h/mL
[1]; Cohort 1 fasted, B/F/TAF with calcium carbonate simultaneous, N = 14, read-out: C24, test GLSM
  concentration at 24 h: 1130 ng/mL
[1]; Cohort 1 fasted, B/F/TAF with calcium carbonate simultaneous, N = 14, read-out: Cmax, test GLSM
  Cmax: 3230 ng/mL
[1]; Cohort 1 fasted, B/F/TAF with ferrous fumarate simultaneous, N = 14, read-out: AUCinf, test GLSM
  AUC(0-inf): 44000 ng·h/mL
[1]; Cohort 1 fasted, B/F/TAF with ferrous fumarate simultaneous, N = 14, read-out: C24, test GLSM
  concentration at 24 h: 640 ng/mL
[1]; Cohort 1 fasted, B/F/TAF with ferrous fumarate simultaneous, N = 14, read-out: Cmax, test GLSM
  Cmax: 1610 ng/mL
[1]; Cohort 1 fasted, BIC alone (N = 14), read-out: AUCinf, reference GLSM
  AUC(0-inf): 119000 ng·h/mL
[1]; Cohort 1 fasted, BIC alone (N = 14), read-out: C24, reference GLSM
  concentration at 24 h: 1740 ng/mL
[1]; Cohort 2 fasted, B/F/TAF 2 h after aluminum/magnesium-containing antacid, N = 14, read-out: AUCinf, test GLSM
  AUC(0-inf): 61100 ng·h/mL
[1]; Cohort 2 fasted, B/F/TAF 2 h after aluminum/magnesium-containing antacid, N = 14, read-out: C24, test GLSM
  concentration at 24 h: 900 ng/mL
[1]; Cohort 2 fasted, B/F/TAF 2 h after aluminum/magnesium-containing antacid, N = 14, read-out: Cmax, test GLSM
  Cmax: 2430 ng/mL
[1]; Cohort 2 fasted, B/F/TAF 2 h before aluminum/magnesium-containing antacid, N = 14, read-out: AUCinf, test GLSM
  AUC(0-inf): 111000 ng·h/mL
[1]; Cohort 2 fasted, B/F/TAF 2 h before aluminum/magnesium-containing antacid, N = 14, read-out: C24, test GLSM
  concentration at 24 h: 1650 ng/mL
[1]; Cohort 2 fasted, BIC alone (N = 14), read-out: AUCinf, reference GLSM
  AUC(0-inf): 128000 ng·h/mL
[1]; Cohort 2 fasted, BIC alone (N = 14), read-out: C24, reference GLSM
  concentration at 24 h: 1930 ng/mL
[1]; Cohort 2 fasted, BIC alone (N = 14), read-out: Cmax, reference GLSM
  Cmax: 5840 ng/mL
[1]; Cohort 3, BIC alone (N = 14), fasted, read-out: AUCinf, reference GLSM
  AUC(0-inf): 89900 ng·h/mL
[1]; Cohort 3, BIC alone (N = 14), fasted, read-out: C24, reference GLSM
  concentration at 24 h: 1350 ng/mL
[1]; Cohort 3 fed, B/F/TAF with aluminum/magnesium-containing antacid simultaneous, N = 14, read-out: AUCinf, test GLSM
  AUC(0-inf): 47900 ng·h/mL
[1]; Cohort 3 fed, B/F/TAF with aluminum/magnesium-containing antacid simultaneous, N = 14, read-out: C24, test GLSM
  concentration at 24 h: 750 ng/mL
[1]; Cohort 3 fed, B/F/TAF with aluminum/magnesium-containing antacid simultaneous, N = 14, read-out: Cmax, test GLSM
  Cmax: 2340 ng/mL
[1]; Cohort 3 fed, B/F/TAF with calcium carbonate simultaneous, N = 14, read-out: AUCinf, test GLSM
  AUC(0-inf): 92900 ng·h/mL
[1]; Cohort 3 fed, B/F/TAF with calcium carbonate simultaneous, N = 14, read-out: C24, test GLSM
  concentration at 24 h: 1430 ng/mL
[1]; Cohort 3 fed, B/F/TAF with calcium carbonate simultaneous, N = 14, read-out: Cmax, test GLSM
  Cmax: 4070 ng/mL
[1]; Cohort 3 fed, B/F/TAF with ferrous fumarate simultaneous, N = 14, read-out: AUCinf, test GLSM
  AUC(0-inf): 75400 ng·h/mL
[1]; Cohort 3 fed, B/F/TAF with ferrous fumarate simultaneous, N = 14, read-out: C24, test GLSM
  concentration at 24 h: 1200 ng/mL
[1]; Cohort 3 fed, B/F/TAF with ferrous fumarate simultaneous, N = 14, read-out: Cmax, test GLSM
  Cmax: 3410 ng/mL
[2]
  dissociation half-life: ~ 163 hours
[3]
  half-life for BIC (median T1/2): ~ 17 hours
